The results in this text go back to PMC8550792, “Evolution of kinase polypharmacology across HSP90 drug discovery” (Cell Chemical Biology, 2021).

Common to all, as to experiment: biochemical
Type in all cases: biochemical

Test [1] has as its target T1, 382 unique human kinases (Homo sapiens, UniProt P22607, G697C).
T1 construct: purchased Reaction Biology (HotSpot contract assay)
Conditions: FGFR3 (G697C), 10 uM; for remaining activity at 10 µM: read-out: % Enzyme Activity (relative to DMSO controls).

The target in test [2] is T2, 382 unique human kinases (Homo sapiens, UniProt Q9Y5S2).
T2 construct: purchased Reaction Biology (HotSpot contract assay)
The settings on record: MRCKb/CDC42BPB, 10 uM; for remaining activity at 10 µM: read-out: % Enzyme Activity (relative to DMSO controls).

For test [3], the target named is T3, 382 unique human kinases (Homo sapiens, UniProt Q9Y243, E17K).
T3 construct: purchased Reaction Biology (HotSpot contract assay)
The settings on record: AKT3 (E17K), 10 uM; for remaining activity at 10 µM: read-out: % Enzyme Activity (relative to DMSO controls).

Test [4] has as its target T4, 382 unique human kinases (Homo sapiens, UniProt Q9UPZ9).
T4 construct: purchased Reaction Biology (HotSpot contract assay)
T4 sequence (Q9UPZ9 1-632): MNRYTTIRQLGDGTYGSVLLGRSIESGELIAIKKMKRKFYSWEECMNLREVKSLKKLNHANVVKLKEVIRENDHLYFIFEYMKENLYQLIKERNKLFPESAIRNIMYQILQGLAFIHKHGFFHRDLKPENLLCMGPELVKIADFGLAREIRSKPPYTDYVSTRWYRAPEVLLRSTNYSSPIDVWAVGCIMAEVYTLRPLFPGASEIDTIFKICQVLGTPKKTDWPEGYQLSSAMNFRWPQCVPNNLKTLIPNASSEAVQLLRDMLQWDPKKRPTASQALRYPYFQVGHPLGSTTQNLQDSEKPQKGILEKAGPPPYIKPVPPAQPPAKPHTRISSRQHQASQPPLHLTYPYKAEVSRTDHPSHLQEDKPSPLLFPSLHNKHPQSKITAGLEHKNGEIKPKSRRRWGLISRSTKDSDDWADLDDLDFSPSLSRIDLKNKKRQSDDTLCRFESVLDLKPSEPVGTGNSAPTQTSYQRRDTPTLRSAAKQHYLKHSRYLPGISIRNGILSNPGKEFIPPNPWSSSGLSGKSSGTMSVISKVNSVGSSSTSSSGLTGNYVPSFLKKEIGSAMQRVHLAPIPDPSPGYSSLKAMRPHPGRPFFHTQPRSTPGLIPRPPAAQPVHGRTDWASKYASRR
Conditions: kinase LCK2/ICK, compound 10 uM; for remaining activity at 10 µM: read-out: % Enzyme Activity (relative to DMSO controls).

In test [5] the target is T5, 382 unique human kinases (Homo sapiens, UniProt Q6IQ55).
T5 construct: purchased Reaction Biology (HotSpot contract assay)
The settings on record: TTBK2, compound at 10 uM, duplicate values; for remaining activity at 10 µM: read-out: % Enzyme Activity (relative to DMSO controls).

The target of test [6] is T6, 382 unique human kinases (Homo sapiens, UniProt Q9UM73).
T6 construct: purchased Reaction Biology (HotSpot contract assay)
The settings on record: ALK, 10 uM; for remaining activity at 10 µM: read-out: % Enzyme Activity (relative to DMSO controls).

In test [7] the target is T7, 382 unique human kinases (Homo sapiens, UniProt P22694).
T7 construct: purchased Reaction Biology (HotSpot contract assay)
Conditions: kinase PKAcb, compound 10 uM; for remaining activity at 10 µM: read-out: % Enzyme Activity (relative to DMSO controls).

Test [8] addresses T8, 382 unique human kinases (Homo sapiens, UniProt P36894).
T8 construct: purchased Reaction Biology (HotSpot contract assay)
The settings on record: ALK3/BMPR1A, 10 uM; for remaining activity at 10 µM: read-out: % Enzyme Activity (relative to DMSO controls).

In test [9] the target is T9, 382 unique human kinases (Homo sapiens, UniProt Q96RR4).
T9 construct: purchased Reaction Biology (HotSpot contract assay)
Conditions: kinase CAMKK2, compound 10 uM; for remaining activity at 10 µM: read-out: % Enzyme Activity (relative to DMSO controls).

Test [10] has as its target T10, 382 unique human kinases (Homo sapiens, UniProt O00311).
T10 construct: purchased Reaction Biology (HotSpot contract assay)
Conditions: kinase CDC7/DBF4, compound 10 uM; for remaining activity at 10 µM: read-out: % Enzyme Activity (relative to DMSO controls).

The target in test [11] is T11, 382 unique human kinases (Homo sapiens, UniProt P29597).
T11 construct: purchased Reaction Biology (HotSpot contract assay)
Conditions: TYK2, [ATP] 15 µM, compound 10 uM; for remaining activity at 10 µM: read-out: % Enzyme Activity (relative to DMSO controls).

Test [12] addresses T12, 382 unique human kinases (Homo sapiens, UniProt P49841).
T12 construct: purchased Reaction Biology (HotSpot contract assay)
Conditions: GSK3b, [ATP] 10 µM, compound 10 uM; for remaining activity at 10 µM: read-out: % Enzyme Activity (relative to DMSO controls).

Test [13] deals with 382 unique human kinases (Homo sapiens, UniProt Q9Y463). Conditions: DYRK1B, [ATP] 20 µM, compound 10 uM; for remaining activity at 10 µM: read-out: % Enzyme Activity (relative to DMSO controls).
Test [14] concerns the target T13, 382 unique human kinases (Homo sapiens, UniProt P57059).
T13 construct: purchased Reaction Biology (HotSpot contract assay)
Conditions: SIK1, [ATP] 30 µM.

Test [15] deals with T14, 382 unique human kinases (Homo sapiens, UniProt P36896).
T14 construct: purchased Reaction Biology (HotSpot contract assay)
T14 sequence (P36896 24-505): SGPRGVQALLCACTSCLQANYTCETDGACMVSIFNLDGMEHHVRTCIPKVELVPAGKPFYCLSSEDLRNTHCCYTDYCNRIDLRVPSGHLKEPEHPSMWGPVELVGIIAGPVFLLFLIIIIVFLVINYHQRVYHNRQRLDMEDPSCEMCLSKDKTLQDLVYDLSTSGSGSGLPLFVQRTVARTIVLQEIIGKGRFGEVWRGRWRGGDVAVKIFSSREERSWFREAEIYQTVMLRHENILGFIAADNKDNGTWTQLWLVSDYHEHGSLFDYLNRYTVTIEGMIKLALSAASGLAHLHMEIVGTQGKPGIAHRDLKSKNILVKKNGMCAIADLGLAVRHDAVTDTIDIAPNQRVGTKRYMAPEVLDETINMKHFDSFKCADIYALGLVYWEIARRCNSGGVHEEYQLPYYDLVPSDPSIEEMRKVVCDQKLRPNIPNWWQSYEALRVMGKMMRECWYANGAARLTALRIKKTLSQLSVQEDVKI
The settings on record: ALK4/ACVR1B, 10 uM; for remaining activity at 10 µM: read-out: % Enzyme Activity (relative to DMSO controls).

In test [16] the target is T15, 382 unique human kinases (Homo sapiens, UniProt Q9Y243).
T15 construct: purchased Reaction Biology (HotSpot contract assay)
Conditions: AKT3, 10 uM; for remaining activity at 10 µM: read-out: % Enzyme Activity (relative to DMSO controls).

For test [17], the target named is T16, 382 unique human kinases (Homo sapiens, UniProt P43250).
T16 construct: purchased Reaction Biology (HotSpot contract assay)
Conditions: GRK6, 10 uM; for remaining activity at 10 µM: read-out: % Enzyme Activity (relative to DMSO controls).

[18] abbreviates: compound 10 uM, read-out: % Enzyme Activity (relative to DMSO controls).

Molecules are shown by their SMILES.

T1 sequence (P22607 23-806 G697C): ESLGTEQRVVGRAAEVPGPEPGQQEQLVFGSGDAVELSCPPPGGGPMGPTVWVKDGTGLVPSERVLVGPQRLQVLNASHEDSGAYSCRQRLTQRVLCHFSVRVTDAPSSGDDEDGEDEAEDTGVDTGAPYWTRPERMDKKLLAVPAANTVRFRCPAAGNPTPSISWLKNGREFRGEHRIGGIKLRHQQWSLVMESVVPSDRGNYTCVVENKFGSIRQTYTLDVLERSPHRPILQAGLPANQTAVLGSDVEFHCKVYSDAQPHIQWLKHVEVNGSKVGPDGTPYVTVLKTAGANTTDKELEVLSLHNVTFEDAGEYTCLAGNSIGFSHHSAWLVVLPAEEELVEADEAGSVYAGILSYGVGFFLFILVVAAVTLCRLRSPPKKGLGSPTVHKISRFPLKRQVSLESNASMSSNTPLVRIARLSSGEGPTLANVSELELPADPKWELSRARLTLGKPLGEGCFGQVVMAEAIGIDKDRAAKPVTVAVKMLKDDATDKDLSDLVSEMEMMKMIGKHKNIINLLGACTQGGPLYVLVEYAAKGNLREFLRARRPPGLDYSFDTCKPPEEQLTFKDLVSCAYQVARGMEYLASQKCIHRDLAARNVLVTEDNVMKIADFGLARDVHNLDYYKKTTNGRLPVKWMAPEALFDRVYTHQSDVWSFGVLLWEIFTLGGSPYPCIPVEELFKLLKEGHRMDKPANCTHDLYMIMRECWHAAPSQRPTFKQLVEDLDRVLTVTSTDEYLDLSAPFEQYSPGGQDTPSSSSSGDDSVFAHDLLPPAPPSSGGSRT
T11 sequence (P29597 whole entry): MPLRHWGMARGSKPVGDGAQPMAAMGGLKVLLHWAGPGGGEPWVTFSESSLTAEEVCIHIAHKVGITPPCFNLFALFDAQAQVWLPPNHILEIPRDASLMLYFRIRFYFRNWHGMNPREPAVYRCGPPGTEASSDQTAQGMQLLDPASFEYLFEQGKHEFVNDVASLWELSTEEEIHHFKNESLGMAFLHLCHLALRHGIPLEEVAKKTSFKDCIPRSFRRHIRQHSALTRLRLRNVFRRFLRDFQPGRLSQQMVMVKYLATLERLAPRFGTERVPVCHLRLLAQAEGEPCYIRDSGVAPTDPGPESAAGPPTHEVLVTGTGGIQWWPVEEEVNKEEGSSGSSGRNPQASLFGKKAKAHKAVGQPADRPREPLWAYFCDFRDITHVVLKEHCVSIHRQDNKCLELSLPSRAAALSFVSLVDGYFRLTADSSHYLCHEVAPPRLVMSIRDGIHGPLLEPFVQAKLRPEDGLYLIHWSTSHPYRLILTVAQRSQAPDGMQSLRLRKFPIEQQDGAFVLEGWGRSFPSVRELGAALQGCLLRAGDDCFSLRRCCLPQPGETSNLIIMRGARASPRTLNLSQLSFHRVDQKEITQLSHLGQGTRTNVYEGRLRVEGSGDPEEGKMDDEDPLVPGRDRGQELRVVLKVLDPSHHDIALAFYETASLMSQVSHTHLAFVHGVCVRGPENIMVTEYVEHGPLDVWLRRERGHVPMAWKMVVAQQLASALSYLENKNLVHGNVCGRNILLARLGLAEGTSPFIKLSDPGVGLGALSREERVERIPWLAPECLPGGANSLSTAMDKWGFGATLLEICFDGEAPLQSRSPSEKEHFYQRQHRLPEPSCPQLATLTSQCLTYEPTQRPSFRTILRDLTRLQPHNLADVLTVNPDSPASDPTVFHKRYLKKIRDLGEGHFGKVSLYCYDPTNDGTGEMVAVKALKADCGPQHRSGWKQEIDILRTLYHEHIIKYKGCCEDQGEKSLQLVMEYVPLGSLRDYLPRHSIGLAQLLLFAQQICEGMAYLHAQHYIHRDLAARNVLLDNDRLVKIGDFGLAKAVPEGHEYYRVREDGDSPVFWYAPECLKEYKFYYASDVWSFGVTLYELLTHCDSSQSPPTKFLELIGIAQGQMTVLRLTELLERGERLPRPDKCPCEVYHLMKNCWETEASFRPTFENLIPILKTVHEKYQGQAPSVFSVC
T13 sequence (P57059 whole entry): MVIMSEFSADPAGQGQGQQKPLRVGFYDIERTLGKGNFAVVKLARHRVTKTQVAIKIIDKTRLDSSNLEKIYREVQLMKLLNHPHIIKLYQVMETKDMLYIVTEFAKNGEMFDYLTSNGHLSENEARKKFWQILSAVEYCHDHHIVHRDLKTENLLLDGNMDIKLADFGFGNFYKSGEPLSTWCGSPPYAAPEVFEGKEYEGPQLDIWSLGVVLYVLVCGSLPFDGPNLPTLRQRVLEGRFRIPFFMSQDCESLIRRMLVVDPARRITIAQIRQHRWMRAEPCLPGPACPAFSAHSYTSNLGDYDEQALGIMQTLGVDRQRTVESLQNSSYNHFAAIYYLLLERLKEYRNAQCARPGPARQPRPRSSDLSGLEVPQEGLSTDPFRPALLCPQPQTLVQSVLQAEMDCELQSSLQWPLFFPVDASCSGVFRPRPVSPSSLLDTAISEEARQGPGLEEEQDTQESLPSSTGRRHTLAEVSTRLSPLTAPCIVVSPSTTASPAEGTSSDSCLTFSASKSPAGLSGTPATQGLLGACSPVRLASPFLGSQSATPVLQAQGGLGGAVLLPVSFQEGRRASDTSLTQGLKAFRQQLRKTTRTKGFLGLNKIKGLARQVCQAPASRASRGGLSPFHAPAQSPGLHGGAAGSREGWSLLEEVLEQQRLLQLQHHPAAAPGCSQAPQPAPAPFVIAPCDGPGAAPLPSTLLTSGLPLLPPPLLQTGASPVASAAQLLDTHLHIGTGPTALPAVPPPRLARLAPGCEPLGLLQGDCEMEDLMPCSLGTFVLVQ
T10 sequence (O00311 whole entry): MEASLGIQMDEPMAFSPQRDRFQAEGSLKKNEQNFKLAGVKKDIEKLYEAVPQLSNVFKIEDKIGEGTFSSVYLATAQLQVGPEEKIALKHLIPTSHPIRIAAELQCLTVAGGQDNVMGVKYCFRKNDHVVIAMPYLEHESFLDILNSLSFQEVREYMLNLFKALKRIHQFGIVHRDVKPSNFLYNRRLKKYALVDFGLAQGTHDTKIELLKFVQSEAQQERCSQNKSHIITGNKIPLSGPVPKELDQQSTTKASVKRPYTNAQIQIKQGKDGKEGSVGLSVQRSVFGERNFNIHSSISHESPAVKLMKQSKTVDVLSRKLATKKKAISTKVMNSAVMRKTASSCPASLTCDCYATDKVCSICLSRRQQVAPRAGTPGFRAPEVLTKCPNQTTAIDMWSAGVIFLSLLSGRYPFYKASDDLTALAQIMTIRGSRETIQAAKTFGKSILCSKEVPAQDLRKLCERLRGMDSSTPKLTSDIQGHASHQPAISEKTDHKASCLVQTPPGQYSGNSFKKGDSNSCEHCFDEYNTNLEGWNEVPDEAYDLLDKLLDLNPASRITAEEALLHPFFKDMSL
T16 sequence (P43250 whole entry): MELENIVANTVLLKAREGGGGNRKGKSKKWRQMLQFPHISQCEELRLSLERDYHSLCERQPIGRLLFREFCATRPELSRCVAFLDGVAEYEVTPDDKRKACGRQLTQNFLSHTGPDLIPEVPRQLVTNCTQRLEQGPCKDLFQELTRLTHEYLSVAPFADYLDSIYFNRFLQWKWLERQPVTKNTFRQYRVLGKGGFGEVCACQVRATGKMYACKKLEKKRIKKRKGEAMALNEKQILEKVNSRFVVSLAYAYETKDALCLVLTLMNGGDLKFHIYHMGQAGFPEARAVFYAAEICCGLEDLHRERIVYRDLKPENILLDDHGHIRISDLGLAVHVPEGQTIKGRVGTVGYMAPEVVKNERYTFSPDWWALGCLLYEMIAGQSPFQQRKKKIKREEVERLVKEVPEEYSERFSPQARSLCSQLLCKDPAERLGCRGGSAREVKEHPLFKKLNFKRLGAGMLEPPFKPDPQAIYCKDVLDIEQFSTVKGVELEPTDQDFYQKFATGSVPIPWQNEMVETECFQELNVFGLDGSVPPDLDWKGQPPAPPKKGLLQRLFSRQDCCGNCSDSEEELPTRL
Sequence of 382 unique human kinases (Homo sapiens, UniProt Q9Y463) (Q9Y463 whole entry): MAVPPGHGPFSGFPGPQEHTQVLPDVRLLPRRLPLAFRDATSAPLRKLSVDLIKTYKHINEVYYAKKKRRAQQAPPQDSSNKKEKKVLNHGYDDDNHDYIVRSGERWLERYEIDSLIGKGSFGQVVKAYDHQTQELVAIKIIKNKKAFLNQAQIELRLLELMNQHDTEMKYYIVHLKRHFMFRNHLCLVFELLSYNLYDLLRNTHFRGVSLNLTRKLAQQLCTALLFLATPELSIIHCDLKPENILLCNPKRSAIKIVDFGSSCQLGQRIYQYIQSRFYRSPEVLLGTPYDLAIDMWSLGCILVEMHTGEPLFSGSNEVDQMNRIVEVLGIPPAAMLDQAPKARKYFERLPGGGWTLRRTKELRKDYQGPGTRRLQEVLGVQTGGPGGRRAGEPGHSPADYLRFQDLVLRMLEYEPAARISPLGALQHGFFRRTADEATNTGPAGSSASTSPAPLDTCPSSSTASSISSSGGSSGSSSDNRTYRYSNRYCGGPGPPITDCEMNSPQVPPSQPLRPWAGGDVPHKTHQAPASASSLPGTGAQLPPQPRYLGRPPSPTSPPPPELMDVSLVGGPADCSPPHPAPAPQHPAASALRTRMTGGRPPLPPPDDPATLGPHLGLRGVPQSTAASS
T15 sequence (Q9Y243 whole entry): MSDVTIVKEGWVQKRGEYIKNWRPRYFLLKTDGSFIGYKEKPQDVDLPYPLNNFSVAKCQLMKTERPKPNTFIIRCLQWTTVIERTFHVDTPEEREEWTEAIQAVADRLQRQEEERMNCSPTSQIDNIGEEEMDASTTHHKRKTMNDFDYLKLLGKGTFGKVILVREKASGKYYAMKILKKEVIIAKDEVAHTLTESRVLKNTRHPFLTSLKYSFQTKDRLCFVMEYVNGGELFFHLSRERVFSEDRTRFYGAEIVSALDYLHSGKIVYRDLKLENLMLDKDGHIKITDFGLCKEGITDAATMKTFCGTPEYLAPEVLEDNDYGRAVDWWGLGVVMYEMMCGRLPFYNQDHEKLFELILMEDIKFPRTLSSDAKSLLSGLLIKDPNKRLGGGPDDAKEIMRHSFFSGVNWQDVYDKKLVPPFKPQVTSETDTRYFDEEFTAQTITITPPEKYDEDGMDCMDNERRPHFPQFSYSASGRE
T3 sequence (Q9Y243 whole entry E17K): as the sequence (Q9Y243 whole entry) above, with E17K counted along it

On to `CC(C)c1cc(-c2n[nH]c(=O)n2-c2ccc3c(ccn3C)c2)c(O)cc1O` [Ganetespib (STA9090)], for which the remaining activity at 10 µM was found to be 61.9% at 382 unique human kinases [1]; 78.9% at 382 unique human kinases [2]; 77.7% at 382 unique human kinases [3]; 90.4% at 382 unique human kinases [4]; 124% on 382 unique human kinases [5]; 67.5% at 382 unique human kinases [6]. In addition, the remaining activity at 10 µM came out at 96.3% on 382 unique human kinases [7], 59.1% on 382 unique human kinases [8], 89.7% on 382 unique human kinases [9] and 85.9% on 382 unique human kinases [10].
Regarding `CC(C)c1cc(-c2n[nH]c(=O)n2-c2ccc3c(ccn3C)c2)c(O)cc1O` [Ganetespib], the remaining activity at 10 µM turned out to be 62.6% at 382 unique human kinases [11]; 29.4% at 382 unique human kinases [12]; 45% on 382 unique human kinases [13]; 11.4% at 382 unique human kinases [14] (setting [18]); 111% at 382 unique human kinases [15]; 92.1% on 382 unique human kinases [16]. The remaining activity at 10 µM at 382 unique human kinases [17] came to 97.2%. In addition, on 382 unique human kinases [14] (compound 1 uM, read-out: % Enzyme Activity (relative to DMSO controls)), the remaining activity at 1 µM turned out to be 75.9%.
Consider `CCNC(=O)c1noc(-c2cc(C(C)C)c(O)cc2O)c1-c1ccc(CN2CCOCC2)cc1` [Luminespib (AUY-922)], for which the “% Enzyme Activity (relative to DMSO controls)” value is listed as 102.74% at 382 unique human kinases [1]; 103.51% at 382 unique human kinases [2]; 79.36% at 382 unique human kinases [3]; 109.49% at 382 unique human kinases [4]; 121.05% at 382 unique human kinases [5]; 95.41% on 382 unique human kinases [6]. For the same compound, the “% Enzyme Activity (relative to DMSO controls)” value at 382 unique human kinases [7] was 100.86%; on 382 unique human kinases [8] it was 99.39%; on 382 unique human kinases [9] it was 109.01%; on 382 unique human kinases [10] it was 105.45%. The remaining activity at 10 µM at 382 unique human kinases [1] was 104%; at 382 unique human kinases [2], 111%; at 382 unique human kinases [3], 84.2%; on 382 unique human kinases [4], 113%; on 382 unique human kinases [5] it was 122%; on 382 unique human kinases [6], 97.2%. The remaining activity at 10 µM stood at 103% on 382 unique human kinases [7], 100% at 382 unique human kinases [8], 110% on 382 unique human kinases [9] and 107% at 382 unique human kinases [10].
On to `CCNC(=O)c1noc(-c2cc(C(C)C)c(O)cc2O)c1-c1ccc(CN2CCOCC2)cc1` [Luminespib], for which the “% Enzyme Activity (relative to DMSO controls)” value worked out at 101.11% on 382 unique human kinases [11]; 110.01% on 382 unique human kinases [12]; 97.25% on 382 unique human kinases [13]; 79.13% on 382 unique human kinases [14] (compound 10 uM); 94.12% on 382 unique human kinases [15]; 99.02% at 382 unique human kinases [16]. Further, at 382 unique human kinases [17], the “% Enzyme Activity (relative to DMSO controls)” value came out at 96.43%. Further, the remaining activity at 10 µM at 382 unique human kinases [11] was 102%; on 382 unique human kinases [12], 110%; on 382 unique human kinases [13] it was 98.9%; on 382 unique human kinases [14] (setting [18]) it was 80.3%; on 382 unique human kinases [15] it was 95%; on 382 unique human kinases [16], 100%. Moreover, on 382 unique human kinases [17], the remaining activity at 10 µM turned out to be 97.2%.
